Results reported in the supplement of paper PMC10307832.

Tests used:
Experiment in all cases: relative viability (nuclei count vs DMSO), 5 days (fraction); higher = more cells survive
Wnt-C59 + OSI-027 = compound: CC1=NC=CC(=C1)C2=CC=C(C=C2)CC(=O)NC3=CC=C(C=C3)C4=CN=CC=C4 [Wnt-C59] + COc1cccc2cc(-c3nc([C@H]4CC[C@H](C(=O)O)CC4)n4ncnc(N)c34)[nH]c12 [OSI-027] (partner 0.5 µM)
Procedure, shortened: (§1)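 The day after seeding in 1536-well plates, lung cancer cell lines were treated by pin tool with a single drug, or with a fixed anchor-drug dose together with five library-drug doses (not always all listed) in √10 steps. After 5 days, a combined fix-and-stain solution (final 0.05% Triton X-100, 1% formaldehyde, 1 ug/ml Hoechst) was added. Nuclei counted on 4× images gave relative viability as treated counts over vehicle counts, reported as the median of duplicate plates.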

Wnt-C59 + Olaparib = compound: CC1=NC=CC(=C1)C2=CC=C(C=C2)CC(=O)NC3=CC=C(C=C3)C4=CN=CC=C4 [Wnt-C59] + O=C(c1cc(Cc2n[nH]c(=O)c3ccccc23)ccc1F)N1CCN(C(=O)C2CC2)CC1 [Olaparib] (partner 8 µM)
Procedure, shortened: as §1

Lapatinib + Dasatinib = compound: CS(=O)(=O)CCNCc1ccc(-c2ccc3ncnc(Nc4ccc(OCc5cccc(F)c5)c(Cl)c4)c3c2)o1 [Lapatinib] + Cc1nc(Nc2ncc(C(=O)Nc3c(C)cccc3Cl)s2)cc(N2CCN(CCO)CC2)n1 [Dasatinib] (partner 0.075 µM)
Procedure, shortened: as §1

Lapatinib + Olaparib = compound: CS(=O)(=O)CCNCc1ccc(-c2ccc3ncnc(Nc4ccc(OCc5cccc(F)c5)c(Cl)c4)c3c2)o1 [Lapatinib] + O=C(c1cc(Cc2n[nH]c(=O)c3ccccc23)ccc1F)N1CCN(C(=O)C2CC2)CC1 [Olaparib] (partner 8 µM)
Procedure, shortened: as §1

Row | Cell Line | relative viability (Wnt-C59 + OSI-027; first compound 0.001 µM) | relative viability (Wnt-C59 + OSI-027; first compound 0.01 µM) | relative viability (Wnt-C59 + OSI-027; first compound 0.03162 µM) | relative viability (Wnt-C59 + OSI-027; first compound 0.1 µM) | relative viability (Wnt-C59 + Olaparib; first compound 0.001 µM) | relative viability (Wnt-C59 + Olaparib; first compound 0.01 µM) | relative viability (Wnt-C59 + Olaparib; first compound 0.03162 µM) | relative viability (Wnt-C59 + Olaparib; first compound 0.1 µM) | relative viability (Lapatinib + Dasatinib; first compound 0.02 µM) | relative viability (Lapatinib + Dasatinib; first compound 0.2 µM) | relative viability (Lapatinib + Dasatinib; first compound 0.6325 µM) | relative viability (Lapatinib + Dasatinib; first compound 2 µM) | relative viability (Lapatinib + Olaparib; first compound 0.02 µM) | relative viability (Lapatinib + Olaparib; first compound 0.06325 µM) | relative viability (Lapatinib + Olaparib; first compound 0.2 µM) | relative viability (Lapatinib + Olaparib; first compound 0.6325 µM) | relative viability (Lapatinib + Olaparib; first compound 2 µM) | relative viability (Lapatinib + Dasatinib; first compound 0.06325 µM)
1 | NCI-H2023 | 0.475 | 0.316 | 0.461 | 0.376 | 0.498 | 0.517 | 0.555 | 0.411 | 0.458 | 0.516 | 0.619 | 0.381 | 0.435 | 0.455 | 0.436 | 0.444 | 0.397 | –
2 | NCI-H2085 | 0.837 | 0.569 | 0.747 | 0.77 | 0.795 | 0.769 | 0.822 | 0.744 | 0.241 | 0.284 | 0.16 | 0.204 | 0.744 | 0.795 | 0.8 | 0.711 | 0.581 | 0.212
3 | NCI-H2087 | 0.53 | 0.476 | 0.572 | 0.592 | 0.608 | 0.657 | 0.688 | 0.722 | – | 0.874 | 0.988 | 0.854 | 0.56 | 0.412 | 0.625 | 0.516 | 0.503 | 0.609
4 | NCI-H2126 | 0.718 | 0.655 | 0.7 | 0.682 | 0.896 | 0.952 | 0.88 | 0.905 | – | 0.533 | 0.559 | 0.387 | 0.933 | 0.757 | 0.894 | 0.825 | 0.794 | 0.404
5 | NCI-H2170 | 0.748 | 0.468 | 0.872 | 0.491 | 0.631 | 0.568 | 0.649 | 0.499 | 0.394 | 0.276 | 0.419 | 0.165 | 0.564 | 0.483 | 0.501 | 0.459 | 0.118 | 0.272
6 | NCI-H2228 | 0.665 | 0.484 | 0.596 | 0.548 | 1.04 | 0.635 | 0.641 | 0.734 | 0.397 | 0.606 | 0.52 | 0.49 | 0.562 | 0.537 | 0.728 | 0.482 | 0.436 | 0.426
7 | NCI-H2342 | 0.57 | 0.527 | 0.646 | 0.613 | 0.792 | 0.489 | 0.446 | 0.396 | 0.262 | 0.301 | 0.303 | 0.263 | 0.406 | 0.405 | 0.398 | 0.433 | 0.348 | 0.293
8 | NCI-H2347 | 0.365 | 0.474 | 0.51 | 0.457 | 0.554 | 0.541 | 0.615 | 0.593 | – | 0.299 | 0.329 | 0.25 | 0.636 | 0.568 | 0.598 | 0.629 | 0.527 | 0.315
9 | NCI-H2405 | 0.633 | 0.554 | 0.579 | 0.476 | 0.851 | 0.879 | 0.898 | 0.861 | 0.215 | 0.208 | 0.164 | 0.232 | – | 0.763 | – | 0.854 | 0.754 | 0.181
